Results on five compounds are retold here after patent US12054498B2, “Heteroaromatic macrocyclic ether chemotherapeutic agents” (Nuvalent, Inc., priority 2020, dated 2024).

In test [1] the target is T1, ALK-wt (Homo sapiens, UniProt Q9UM73).
T1 construct: purchased Carna 08-518
In words: Biochemical kinase assay, ALK-wt kinase domain. The note with it: apparent inhibitory constant, Morrison equation; ATP 2 mM in substrate solution; read-out: ALK-wt Ki^app. The method in brief:
(§1)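 Apparent Ki values come from fitting initial reaction rates against inhibitor concentration to the Morrison equation. Rates were taken from the linear phase of fluorogenic substrate phosphorylation (AQT0101 for ALK and ROS1, AQT0104 for TRKA; 26 μM in substrate solution with 2 mM ATP), monitored at 485 nm over 120 min at 30° C.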

Test [2] addresses T2, ALK L1196M/G1202R (Homo sapiens, UniProt Q9UM73, G1202R/L1196M).
T2 construct: purchased SignalChem A19-12NG
Put plainly: Biochemical kinase assay, ALK L1196M/G1202R kinase domain. The note with it: apparent inhibitory constant, Morrison equation; ATP 2 mM in substrate solution; read-out: ALK-L1196M-G1202R Ki^app. The method in brief: as §1

In test [3] the target is T3, ROS1-wt (Homo sapiens, UniProt P08922).
T3 construct: purchased Carna 08-163
Put plainly: Biochemical kinase assay, ROS1-wt kinase domain. The following applies: apparent inhibitory constant, Morrison equation; ATP 2 mM in substrate solution; read-out: ROS1-wt Ki^app. In outline: (§2)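 Compounds, as 100-fold DMSO stocks, were dispensed first, then substrate mix was added (ATP 2 mM, AQT0101 26 μM, in 50 mM HEPES pH 7.5/10 mM MgCl2). Reactions ran at 30 °C with fluorescence logged every 2 min over 120 min. Apparent inhibition constants came from fitting rates to Morrison's tight-binding equation.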

In test [4] the target is T4, ROS1-G2032R (Homo sapiens, UniProt P08922, G2032R).
T4 construct: purchased SignalChem R14-12BG
In words: Biochemical kinase assay, ROS1-G2032R kinase domain. The following applies: apparent inhibitory constant, Morrison equation; ATP 2 mM in substrate solution; read-out: ROS1-G2032R Ki^app. In outline: as §2

The target in test [5] is T5, TRKA-wt (Homo sapiens, UniProt P04629).
T5 construct: or TRKA-wt (1 nM, BPS Bio, 40280) kinase domains in buffer; purchased BPS Bio 40280
In words: Biochemical kinase assay, TRKA-wt kinase domain. The note with it: apparent inhibitory constant, Morrison equation; ATP 2 mM in substrate solution; read-out: TRKA-wt Ki^app. The method in brief:
as §1

Test [6] has as its target T6, Ba/F3 cells CD74-ROS1 wild-type (wt) (Homo sapiens, UniProt P08922).
T6 construct: fusion of the C-terminus of ROS1 with the N-terminus of various partner proteins; host or cells: Ba/F3 (RIKEN), retroviral pMSCV-puro; the other entry of the earlier key: CD74 (P04233, HLA class II histocompatibility antigen gamma chain)
In words: Ba/F3 cell proliferation assay, CD74-ROS1 wild-type. The following applies: 72 hours, CellTiter-Glo. Format: cell-based. In outline: (§3)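 Viability read by CellTiter-Glo luminescence after 72 h exposure to 3-fold serial compound dilutions, four-parameter logistic fitting giving IC50.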
A general note: In ATP-based viability assays light output follows the ATP content of the culture.

In test [7] the target is T7, Ba/F3 cells CD74-ROS1 G2032R (Homo sapiens, UniProt P08922, G2032R).
T7 construct: fusion of the C-terminus of ROS1 with the N-terminus of various partner proteins; host or cells: Ba/F3 (RIKEN), retroviral pMSCV-puro; the other entry of the earlier key: CD74 (P04233, HLA class II histocompatibility antigen gamma chain)
In words: Ba/F3 cell proliferation assay, CD74-ROS1 G2032R. It counts as cell-based. The note with it: 72 hours, CellTiter-Glo. The method in brief: as §3

Test [8] deals with T8, Ba/F3 cells EML4-ALK wt (variant 1) (Homo sapiens, UniProt Q9UM73).
T8 construct: echinoderm microtubule-associated protein-like 4 (EML4) gene and the ALK tyrosine kinase domain; host or cells: Ba/F3 (RIKEN), retroviral pMSCV-puro; the other entry of the earlier key: EML4 (Q9HC35, Echinoderm microtubule-associated protein-like 4)
Put plainly: Ba/F3 cell proliferation assay, EML4-ALK wt (variant 1). It counts as cell-based. The following applies: 72 hours, CellTiter-Glo. The method in brief:
(§4)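 Proliferation of fusion-driven Ba/F3 monoclones (grown without IL-3, puromycin 0.8 μg/mL) is followed over 72 hours of treatment with a 3-fold compound dilution series. ATP content is read by CellTiter-Glo luminescence, and IC50 is derived by four-parameter logistic fitting of percent inhibition.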

The target in test [9] is T9, Ba/F3 cells EML4-ALK L1196M/G1202R (variant 1) (Homo sapiens, UniProt Q9UM73, G1202R/L1196M).
T9 construct: echinoderm microtubule-associated protein-like 4 (EML4) gene and the ALK tyrosine kinase domain; host or cells: Ba/F3 (RIKEN), retroviral pMSCV-puro; the other entry of the earlier key: EML4 (Q9HC35, Echinoderm microtubule-associated protein-like 4)
Put plainly: Ba/F3 cell proliferation assay, EML4-ALK L1196M/G1202R (variant 1). Format: cell-based. The following applies: 72 hours, CellTiter-Glo. The method in brief:
as §4

Test [10] has as its target T10, Ba/F3 cells TPM3-TRKA (Homo sapiens, UniProt P04629).
T10 construct: host or cells: Ba/F3 (RIKEN), retroviral pMSCV-puro; the other entry of the earlier key: TPM3 (P06753, Tropomyosin alpha-3 chain)
Put plainly: Ba/F3 cell proliferation assay, TPM3-TRKA. It counts as cell-based. The note with it: 72 hours, CellTiter-Glo, read-out: TPM3-NTRK1-wt IC50. The method in brief: as §4

Test [11] relates to TPM3-NTRK1-wt IC50 / primary target IC50 (e.g. CD74-ROS1-wt). In words: TRKA selectivity in Ba/F3 cells (TRKA potency divided by primary target potency). It counts as cell-based. The note with it: for TPM3-NTRK1-wt/CD74-ROS1-G2032R selectivity ratio: TRKA potency / CD74-ROS1-G2032R potency; for TPM3-NTRK1-wt/CD74-ROS1-wt selectivity ratio: TRKA potency / CD74-ROS1-wt potency; for TPM3-NTRK1-wt/EML4-ALK-L1196M-G1202R selectivity ratio: TRKA potency / EML4-ALK-L1196M-G1202R potency; for TPM3-NTRK1-wt/EML4-ALK-wt selectivity ratio: TRKA potency / EML4-ALK-wt potency. As for the experimental part: TRKA selectivity was calculated by dividing a compound's TRKA potency by its primary target potency (e.g. TPM3-NTRK1-wt IC50/CD74-ROS1-wt IC50). Compound selectivity can be interpreted by binning ratio values: bin A for very high selectivity, ratio >30-fold; bin B for high selectivity, ratio >10-fold; bin C for moderate selectivity, ratio ≥1; and bin D for low selectivity, ratio <1. […] (nd=not determined).

In general, IC50 refers to the point on the concentration scale where inhibition reaches its midpoint.

T3 sequence (P08922 1945-2222 limits assumed): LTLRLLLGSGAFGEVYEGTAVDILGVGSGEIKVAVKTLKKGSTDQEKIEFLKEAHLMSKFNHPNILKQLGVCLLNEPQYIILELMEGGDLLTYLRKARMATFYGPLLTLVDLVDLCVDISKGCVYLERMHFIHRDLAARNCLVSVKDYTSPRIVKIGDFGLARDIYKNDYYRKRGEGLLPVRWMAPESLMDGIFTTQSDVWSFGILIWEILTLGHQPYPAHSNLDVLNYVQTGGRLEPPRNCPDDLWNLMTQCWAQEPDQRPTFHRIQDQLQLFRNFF
T5 sequence (P04629 510-781 limits assumed): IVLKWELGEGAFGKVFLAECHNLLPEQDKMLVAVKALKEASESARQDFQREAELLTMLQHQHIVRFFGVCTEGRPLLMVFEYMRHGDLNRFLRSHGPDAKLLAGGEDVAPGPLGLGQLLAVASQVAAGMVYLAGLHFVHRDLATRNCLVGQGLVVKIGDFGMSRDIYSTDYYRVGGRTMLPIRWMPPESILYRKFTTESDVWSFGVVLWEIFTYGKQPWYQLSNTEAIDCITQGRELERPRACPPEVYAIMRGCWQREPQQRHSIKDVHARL
T9 sequence (Q9UM73 with tags, fused parts or gaps L1196M/G1202R): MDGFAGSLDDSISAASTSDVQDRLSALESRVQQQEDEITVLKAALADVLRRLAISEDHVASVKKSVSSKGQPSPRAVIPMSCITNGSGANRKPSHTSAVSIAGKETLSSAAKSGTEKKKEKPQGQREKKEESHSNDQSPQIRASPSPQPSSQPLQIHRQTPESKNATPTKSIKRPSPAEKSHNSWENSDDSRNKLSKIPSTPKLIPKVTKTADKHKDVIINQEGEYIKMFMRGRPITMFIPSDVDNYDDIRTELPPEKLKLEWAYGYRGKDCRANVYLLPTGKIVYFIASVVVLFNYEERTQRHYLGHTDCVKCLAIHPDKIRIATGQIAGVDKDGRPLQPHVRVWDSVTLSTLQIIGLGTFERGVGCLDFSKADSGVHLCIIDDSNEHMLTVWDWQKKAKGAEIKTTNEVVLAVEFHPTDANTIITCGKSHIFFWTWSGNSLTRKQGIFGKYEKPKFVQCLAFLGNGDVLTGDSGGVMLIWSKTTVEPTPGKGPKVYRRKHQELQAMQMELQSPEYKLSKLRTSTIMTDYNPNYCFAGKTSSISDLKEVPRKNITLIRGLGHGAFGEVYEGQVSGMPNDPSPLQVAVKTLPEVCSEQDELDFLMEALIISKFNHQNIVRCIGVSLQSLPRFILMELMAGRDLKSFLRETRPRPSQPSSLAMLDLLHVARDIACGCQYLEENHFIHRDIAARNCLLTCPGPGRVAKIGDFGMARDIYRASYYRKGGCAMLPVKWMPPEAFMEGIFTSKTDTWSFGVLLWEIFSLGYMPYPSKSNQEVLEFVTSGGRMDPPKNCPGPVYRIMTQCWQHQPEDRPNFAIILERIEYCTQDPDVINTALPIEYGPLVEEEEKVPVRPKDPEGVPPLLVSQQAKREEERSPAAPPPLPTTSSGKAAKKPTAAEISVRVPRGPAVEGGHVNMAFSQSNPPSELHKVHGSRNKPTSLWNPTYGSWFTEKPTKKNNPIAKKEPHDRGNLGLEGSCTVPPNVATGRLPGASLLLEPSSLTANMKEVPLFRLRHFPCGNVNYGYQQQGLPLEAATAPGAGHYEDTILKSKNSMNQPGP
T7 sequence (P08922 1883-2347 G2032R limits assumed): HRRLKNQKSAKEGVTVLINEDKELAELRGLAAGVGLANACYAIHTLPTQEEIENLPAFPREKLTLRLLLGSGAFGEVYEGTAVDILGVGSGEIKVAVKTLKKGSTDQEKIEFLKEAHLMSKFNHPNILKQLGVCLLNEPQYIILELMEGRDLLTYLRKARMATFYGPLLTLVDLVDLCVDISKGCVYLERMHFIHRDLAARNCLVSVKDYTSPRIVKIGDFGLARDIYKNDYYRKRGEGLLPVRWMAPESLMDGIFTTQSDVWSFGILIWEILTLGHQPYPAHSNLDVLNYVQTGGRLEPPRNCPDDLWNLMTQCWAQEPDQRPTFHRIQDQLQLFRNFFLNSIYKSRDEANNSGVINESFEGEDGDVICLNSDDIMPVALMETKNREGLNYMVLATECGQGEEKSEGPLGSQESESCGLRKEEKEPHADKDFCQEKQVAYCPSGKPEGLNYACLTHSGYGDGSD
T10 sequence (P04629 510-796 limits assumed): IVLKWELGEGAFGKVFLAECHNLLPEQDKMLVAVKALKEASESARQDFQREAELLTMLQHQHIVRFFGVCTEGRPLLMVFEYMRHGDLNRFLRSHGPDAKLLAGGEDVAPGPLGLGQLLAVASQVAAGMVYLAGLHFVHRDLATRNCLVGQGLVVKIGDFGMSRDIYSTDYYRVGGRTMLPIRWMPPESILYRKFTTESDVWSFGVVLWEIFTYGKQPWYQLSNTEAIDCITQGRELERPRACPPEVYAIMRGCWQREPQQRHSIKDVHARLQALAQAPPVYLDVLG
T8 sequence (Q9UM73 with tags, fused parts or gaps): as the sequence (Q9UM73 with tags, fused parts or gaps L1196M/G1202R) above, with M635L, R641G counted along it
T2 sequence (Q9UM73 1116-1392 L1196M/G1202R limits assumed): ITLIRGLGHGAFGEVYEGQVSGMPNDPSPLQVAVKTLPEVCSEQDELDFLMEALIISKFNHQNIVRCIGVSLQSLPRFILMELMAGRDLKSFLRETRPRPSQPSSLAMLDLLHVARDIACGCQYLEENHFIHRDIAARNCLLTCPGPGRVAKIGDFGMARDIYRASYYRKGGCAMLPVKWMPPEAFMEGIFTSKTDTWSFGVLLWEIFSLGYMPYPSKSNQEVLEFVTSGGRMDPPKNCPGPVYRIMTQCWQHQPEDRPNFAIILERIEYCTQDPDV
T6 sequence (P08922 1883-2347 limits assumed): as the sequence (P08922 1883-2347 G2032R limits assumed) above, with R150G counted along it
T1 sequence (Q9UM73 1116-1392 limits assumed): as the sequence (Q9UM73 1116-1392 L1196M/G1202R limits assumed) above, with M81L, R87G counted along it
T4 sequence (P08922 1945-2222 G2032R limits assumed): as the sequence (P08922 1945-2222 limits assumed) above, with G88R counted along it

In the case of `CCn1ncc2c1-c1cnc(N)c(c1)O[C@H](C)c1cc(F)ccc1-n1nc(C)nc1C2` [Example 40, (19R)-3-ethyl-16-fluoro-10,19-dimethyl-20-oxa-3,4,9,11,12,23-hexaazapentacyclo[19.3.1.0^2,^6.0^8,^12.0^13,^18] pentacosa 1(24),2(6),4,8,10,13,15,17,21(25),22-decaen-22-amine], the Ki was < 50 nM in [1]; < 50 nM in [2]; < 50 nM in [3]; < 50 nM in [4]; 50 to 500 nM in test [5]. In addition, the IC50 was 0.1 to 50 nM in [6]; 0.1 to 50 nM in test [7]; 0.1 to 50 nM in [8]; 50 to 500 nM in test [9]; 50 to 500 nM in [10]. Also, the TPM3-NTRK1-wt/CD74-ROS1-G2032R selectivity ratio result in [11] is on record as “A (bin A for very high selectivity, ratio >30-fold)”. The TPM3-NTRK1-wt/CD74-ROS1-wt selectivity ratio result in [11] is reported as “A (bin A for very high selectivity, ratio >30-fold)”. Moreover, the TPM3-NTRK1-wt/EML4-ALK-L1196M-G1202R selectivity ratio result in test [11] is reported as “C (bin C for moderate selectivity, ratio ≥1)”. Besides, the TPM3-NTRK1-wt/EML4-ALK-wt selectivity ratio entry in test [11] was “B (bin B for high selectivity, ratio >10-fold)”.
In the case of `CCn1ncc2c1-c1cnc(N)c(c1)O[C@H](C)c1cc(F)ccc1-c1cc(F)nn1C2` [Example 15, (19R)-3-ethyl-10,16-difluoro-19-methyl-20-oxa-3,4,8,9,23-pentaazapentacyclo[19.3.1.0^2,^6.0^8,^12.0^13,^18]pentacosa-1(24),2(6),4,9,11,13,15,17,21(25),22-decaen-22-amine], the Ki was < 50 nM in test [1]; < 50 nM in [2]; < 50 nM in test [3]; < 50 nM in test [4]; 50 to 500 nM in test [5]. The IC50 in test [6] was in the range of 0.1 to 50 nM; in test [7], 0.1 to 50 nM; in test [8], 0.1 to 50 nM; in [9] it was 0.1 to 50 nM; in test [10], 50 to 500 nM. In addition, the TPM3-NTRK1-wt/CD74-ROS1-G2032R selectivity ratio entry in test [11] is reported as “A (bin A for very high selectivity, ratio >30-fold)”. Besides, in test [11], the TPM3-NTRK1-wt/CD74-ROS1-wt selectivity ratio result is “A (bin A for very high selectivity, ratio >30-fold)”. Moreover, the TPM3-NTRK1-wt/EML4-ALK-L1196M-G1202R selectivity ratio result in test [11] is “C (bin C for moderate selectivity, ratio ≥1)”. Further, the TPM3-NTRK1-wt/EML4-ALK-wt selectivity ratio entry in test [11] is “A (bin A for very high selectivity, ratio >30-fold)”.
For the compound `C[C@H]1Oc2cc(cnc2N)-c2c(nnn2CC2CC2)Cc2nn(C)nc2-c2ccc(F)cc21` [Example 51, (19R)-3-(cyclopropylmethyl)-16-fluoro-10,19-dimethyl-20-oxa-3,4,5,9,10,11,23-heptaazapentacyclo[19.3.1.0^2,^6.0^8,^12.0^13,^18]pentacosa-1(24),2(6),4,8,11,13,15,17,21(25),22-decaen-22-amine], the Ki was < 50 nM in [1]; < 50 nM in test [2]; < 50 nM in test [3]; < 50 nM in [4]; > 500 nM in test [5]. Further, the IC50 in test [6] was 0.1 to 50 nM; in test [7], 0.1 to 50 nM; in test [8], 0.1 to 50 nM; in [9], 0.1 to 50 nM; in test [10], > 500 nM. Moreover, the TPM3-NTRK1-wt/CD74-ROS1-G2032R selectivity ratio entry in [11] is given as “A (bin A for very high selectivity, ratio >30-fold)”. For the same compound, the TPM3-NTRK1-wt/CD74-ROS1-wt selectivity ratio result in test [11] is reported as “A (bin A for very high selectivity, ratio >30-fold)”. The TPM3-NTRK1-wt/EML4-ALK-L1196M-G1202R selectivity ratio entry in test [11] is “A (bin A for very high selectivity, ratio >30-fold)”. In test [11], the TPM3-NTRK1-wt/EML4-ALK-wt selectivity ratio result is “A (bin A for very high selectivity, ratio >30-fold)”.
Consider `CCn1ncc2c1-c1cnc(N)c(c1)O[C@H](C)c1cc(F)ccc1-c1ncnn1C2` [Example 35, (19R)-3-ethyl-16-fluoro-19-methyl-20-oxa-3,4,8,9,11,23-hexaazapentacyclo[19.3.1.0^2,^6.0^8,^12.0^13,^18]pentacosa-1(24),2(6),4,9,11,13,15,17,21(2 5),22-decaen-22-amine], for which the Ki in [1] is < 50 nM; in test [2] it was < 50 nM; in [3], < 50 nM; in test [4], < 50 nM; in [5], 50 to 500 nM. The IC50 in [6] was 0.1 to 50 nM; in [7], 0.1 to 50 nM; in test [8], 0.1 to 50 nM; in [9], 50 to 500 nM; in test [10], > 500 nM. In addition, in test [11], the TPM3-NTRK1-wt/CD74-ROS1-G2032R selectivity ratio result is reported as “A (bin A for very high selectivity, ratio >30-fold)”. For the same compound, in [11], the TPM3-NTRK1-wt/CD74-ROS1-wt selectivity ratio entry was “A (bin A for very high selectivity, ratio >30-fold)”. Further, the TPM3-NTRK1-wt/EML4-ALK-L1196M-G1202R selectivity ratio entry in test [11] was “C (bin C for moderate selectivity, ratio ≥1)”. The TPM3-NTRK1-wt/EML4-ALK-wt selectivity ratio entry in test [11] is recorded as “A (bin A for very high selectivity, ratio >30-fold)”.
`Cc1nc2c(o1)-c1ccc(F)cc1[C@@H](C)Oc1cc(cnc1N)-c1c(cnn1CC1CC1)C2` [Example 76, (19R)-3-(cyclopropylmethyl)-16-fluoro-10,19-dimethyl-11,20-dioxa-3,4,9,23-tetraazapentacyclo[19.3.1,0^2,^6.0^8,^12.0^13,^18]pentacosa-1(24),2(6),4,8(12),9,13,15,17,21(25),22-decaen-22-amine]: the Ki is < 50 nM in test [1]; < 50 nM in test [2]; < 50 nM in [3]; < 50 nM in test [4]; > 500 nM in test [5]. Besides, the IC50 was 0.1 to 50 nM in [6]; 0.1 to 50 nM in test [7]; 0.1 to 50 nM in [8]; 0.1 to 50 nM in [9]; > 500 nM in test [10]. Further, the TPM3-NTRK1-wt/CD74-ROS1-G2032R selectivity ratio result in test [11] is “A (bin A for very high selectivity, ratio >30-fold)”. Moreover, the TPM3-NTRK1-wt/CD74-ROS1-wt selectivity ratio result in test [11] was “A (bin A for very high selectivity, ratio >30-fold)”. In addition, the TPM3-NTRK1-wt/EML4-ALK-L1196M-G1202R selectivity ratio result in [11] was “A (bin A for very high selectivity, ratio >30-fold)”. The TPM3-NTRK1-wt/EML4-ALK-wt selectivity ratio result in [11] is reported as “A (bin A for very high selectivity, ratio >30-fold)”.
